From patent US7919464B2, “Use of a peptide that interacts with αvβ3 integrin of endothelial cell” (Kyungpook National University Industry-Academic Cooperation …, priority 2003, dated 2011)
Ends that are not written are not given here.

B1: ΔH1H2(6): smallest deletion mutant fragment, amino acids 548-614 of SEQ ID NO: 1, SEQ ID NO: 10 (protein, listed as Homo sapiens)
chain: RALPPRERSRLLGDAKELANILKYHIGDEILVSGGIGALVRLKSLQGDKLEVSLKNNVVSVNKEPVA

Assays:
HUVECs [1] = test: HUVECs adhesion to plates coated with βig-h3, its fas-1 domains or mutants; format: cell-based, human; conditions: 10 μg/ml protein coated on plate; attached cells by absorbance at 405 nm; control BSA
Protocol: Cell adhesion assay was performed according to the method described by Kim, J.-E. et al., J. Biol. Chem., 277:4615946165, 2002. For this purpose, 10 μg/ml of each of the recombinant proteins (βig-h3 His-β-b, βig-h3 D-I, βig-h3 D-II, βig-h3 D-III and βig-h3 D-IV) prepared in Example 1 was placed into a flat-bottomed 96-well ELISA (enzyme-linked immunosorbent assay) plate (Costar, Corning Inc., NY) and then incubated overnight at 4° C., to coat the surface of the plate. As a control, 2% BSA was coated on the plate. Then, the plate was treated with PBS (phosphate-buffered saline) containing 2% BSA, and blocked at room temperature for one hour.
Meanwhile, HUVECs (human umbilical vein endothelial cells; Clonetics, San Diego, Calif.) were incubated in EGM medium (Clonetics, San Diego, Calif.) containing 2% FBS (Fetal Bovine Serum) under a condition of 37° C. and 5% CO2. The incubated cells were suspended in medium at a density of 3×10^5 cells/ml, and 0.1 ml of the cell suspension was added to each well of the plate. Next, the cells were incubated at 37° C. for 30 minutes and washed one time with PBS buffer to remove cells which had not been attached to the plate. Attached cells were added with 50 mM citrate buffer (pH 5.0) containing 3.75 mM p-nitrophenyl-N-acetyl β-D-glycosaminide and 0.25% Triton X-100, and incubated at 37° C. for one hour. Thereafter, 50 mM glycine buffer (pH 10.4) containing 5 mM EDTA was added to block the activity of the enzyme. The absorbance was measured at a 405-nm in a Bio-Rad model 550 microplate reader. Here, the higher the number of cells adhered to the plate, the higher the absorbance.
Each of the deletion mutants was generated by PCR using a cDNA template encoding the fourth fas-1 domain (SEQ ID NO: 5) (Kim, J.-E. et al., J. Biol. Chem., 275:30907-30915, 2000). Each of the PCR-amplified DNA fragments was cloned into the EcoRV/Xhol sites of the pET-29b(+) vector (Novagen; Madison, Wis.). The mutations were confirmed by sequence analysis, and the deletion mutants were expressed and purified according to a prior method (Kim, J.-E., et al., J. Cell. Biochem., 77:169-178, 2000). Thereafter, the cell adhesion activity of each of the deletion mutants was tested in the same manner as in Example 2.
Previously, the present inventors reported that an YH motif, which contains tyrosine-histidine residues highly conserved in the fragment corresponding to amino acids 548-614 of SEQ ID NO: 1, and several leucine and isoleucine residues adjacent to the tyrosine-histidine residues, binds to the αvβ5 integrin (Kim, J.-E., et al., J. Biol. Chem., 277:46159-46165, 2002). Thus, the present inventors suspected that the YH motif may also interact with the αvβ3 integrin to mediate endothelial cell adhesion. For this reason, in the present invention, the tyrosine-histidine residues conserved in the fas-1 domains, and/or the leucine and isolucine residues adjacent to the tyrosine-histidine residues, were substituted in various combinations by alanine or serine (Kim, J.-E., et al., J. Biol. Chem. 277:4615946165, 2002)(see FIG. 4b). The amino acid sequences of the prepared YH motif mutants are shown in SEQ ID NO: 17 to SEQ ID NO: 22. The mutations were confirmed by sequence analysis. Then, the substitution mutants were expressed and purified according to a known method (Kim, J.-E., et al., J. Cell. Biochem., 77:169-178, 2000). The substitution mutants were tested for their cell adhesion activity according to the same manner as in Example 2.

HUVECs [2] = system: HUVECs
Protocol: First, 100 μl of Matrigel (Chemicon, International Inc, Temecula, Calif.) was added to each well of a 96-well plate and allowed to polymerize. HUVECs were suspended in medium at a density of 3×10^5 cells/ml, and 0.1 ml of the cell suspension was added to each well of the well plate coated with Matrigel. At this time, 500 μM or 1 mM of the YH18 synthetic peptide represented by SEQ ID NO: 26 was added together. A control to peptide treatment was treated with 5% DMSO (solvent), and a control to the YH18 synthetic peptide was treated with the YH18-con. peptide represented by SEQ ID NO: 27. Thereafter, the cells were incubated at 37° C. for 16-18 hours. The cells were photographed, and endothelial tubes were counted and averaged.

HUVECs [3] = test: HUVECs migration assay in transwell plate coated with βig-h3; format: cell-based, human; conditions: 500 μM or 1 mM peptide of SEQ ID NO: 26
Protocol: Firstly, to examine whether βig-h3 is involved in the migration of endothelial cells, the present inventors performed cell migration assay. The cell migration assay was performed in a transwell plate (8 μm pore size, Costar, Cambridge, Mass.). The undersurface of the membrane was coated with the recombinant βig-h3 His-β-b protein (10 μg/ml) prepared in Example 1 at 4° C., and then, blocked for 1 hour at room temperature with PBS buffer containing 2% BSA. Meanwhile, HUVECs were added with an anti-αvβ3 antibody (LM609) or an anti-αvβ5 antibody (P1F6) and preincubated at 37° C. for 30 minutes. A control was added with mouse IgG. Then, the HUVECs preincubated with the antibody were suspended in medium at a density of 3×10^5 cells/ml, and 0.1 ml of the cell suspension was added to the upper compartment of the filter. The cells were allowed to migrate at 37° C. for 6-8 hours.
Migration was terminated by removing the cells from the upper compartment of the filter with a cotton swab. The filters were fixed with 8% glutaraldehyde and stained with crystal violet. The extent of cell migration was determined by light microscope, and within each well, cell counting was done in nine randomly selected fields HPF (Microscopic high power fields, ×200).
Then, the present inventors examined whether the migration of endothelial cells is inhibited by the YH18 synthetic peptide. […]

C57/BL6 mice = test: In vivo Matrigel plug assay; conditions: subcutaneous, 7 days
Protocol: In the present invention, the angiogenesis-inhibitory effect of the YH18 synthetic peptide, which had been proven in vitro assay according to Example 8-1, was assayed in vivo. An in vivo Matrigel plug assay was performed according to the method described by Maeshima, Y. et al., J. Biol. Chem., 275:23745-23750, 2000. 5-6 week old male C57/BL6 mice purchased from Hyochang scientific company, Korea, were used.
First, Matrigel (BD Biosciences, MA) was mixed with 20 units/ml heparin, 150 ng/ml bFGF (basic fibroblast growth factor, R&D system, International, Inc), and a YH18 synthetic peptide represented by SEQ ID NO: 26. As a control to the YH18 synthetic peptide, an YH18-con. peptide was used, and a control to peptide treatment was treated with 5% DMSO (solvent). The Matrigel mixture was injected subcutaneously to the C57/BL6 mice. After 7 days, the mice were sacrificed, and the Matrigel plugs were removed and fixed in 4% paraformaldehyde. The Matrigel plugs were buried in paraffin, sectioned and stained with H&E. Their sections were examined by light microscope, the number of blood vessels from 4-6 HPF (high power fields; ×200) was counted and averaged. Each group consisted of 3 or 4 Matrigel plugs.

Molecule	endothelial cell (HUVECs) adhesion activity (HUVECs [1])	further results
D-IV-AA: D-IV mutant, tyrosine-histidine residues substituted with alanine-alanine (GDAKELANILKAAIGDEILVSGGIGALVR)	equal to those of the fas-1 domain (D-IV) and its fragment (H1H2(6))	–
D-IV-AAR: D-IV mutant, tyrosine-histidine to alanine-alanine and isoleucine/leucine on one side to serine (GDAKELANILKAASGDESSVSGGIGALVR; D-IV-AAR)	somewhat lower than those of D-IV-LAA and D-IV-AAR	–
D-IV-L: D-IV mutant, leucine and isoleucine residues adjacent to one side of tyrosine-histidine substituted with serine (GDAKESANSSKYHIGDEILVSGGIGALVR; D-IV-L)	equal to those of the fas-1 domain (D-IV) and its fragment (H1H2(6))	–
D-IV-LAA: D-IV mutant, tyrosine-histidine to alanine-alanine and isoleucine/leucine on one side to serine (GDAKESANSSKAAIGDEILVSGGIGALVR; D-IV-LAA)	somewhat lower than those of D-IV-LAA and D-IV-AAR	–
D-IV-LYHR: D-IV mutant, all isoleucine and leucine residues on both sides of tyrosine-histidine substituted with serine (GDAKESANSSKYHSGDESSVSGGIGALVR; D-IV-LYHR)	reduced to half that of the fas-1 domain	–
D-IV-R: D-IV mutant, leucine and isoleucine residues adjacent to one side of tyrosine-histidine substituted with serine (GDAKELANILKYHSGDESSVSGGIGALVR; D-IV-R)	equal to those of the fas-1 domain (D-IV) and its fragment (H1H2(6))	–
KELANILKYHIGDEILVS [YH18 synthetic peptide]	–	IC50 (HUVECs [2]): 500 µM; inhibition of HUVECs tube formation (HUVECs [2]; 500 μM or 1 mM peptide, dose-dependent): selectively inhibited; inhibition of HUVECs migration toward βig-h3 by YH18 synthetic peptide (HUVECs [3]): inhibited the migration of endothelial cells toward βig-h3; number of blood vessels in Matrigel plug (C57/BL6 mice; 500 μM peptide in Matrigel with bFGF and heparin): significant reduction in the number of blood vessels; inhibition of angiogenesis in Matrigel plug (C57/BL6 mice; 1 mM peptide in Matrigel with bFGF and heparin): complete inhibition of angiogenesis
B1	still retains endothelial cell adhesion activity	–
